From PubChem BioAssay AID720701 (Sanford-Burnham Center for Chemical Genomics, 2013)
Calls of active or inactive are those of the source. How the calls were made is not given here.

Target: Protein artemis (Homo sapiens) (UniProt Q96SD1)
Test: Artemis endonuclease inhibitor potency, dose response, biochemical, fluorescence intensity (AID 720701)
Details: Recombinant Artemis endonuclease

Sequence of Protein artemis (Homo sapiens) (Q96SD1 whole entry, looked up): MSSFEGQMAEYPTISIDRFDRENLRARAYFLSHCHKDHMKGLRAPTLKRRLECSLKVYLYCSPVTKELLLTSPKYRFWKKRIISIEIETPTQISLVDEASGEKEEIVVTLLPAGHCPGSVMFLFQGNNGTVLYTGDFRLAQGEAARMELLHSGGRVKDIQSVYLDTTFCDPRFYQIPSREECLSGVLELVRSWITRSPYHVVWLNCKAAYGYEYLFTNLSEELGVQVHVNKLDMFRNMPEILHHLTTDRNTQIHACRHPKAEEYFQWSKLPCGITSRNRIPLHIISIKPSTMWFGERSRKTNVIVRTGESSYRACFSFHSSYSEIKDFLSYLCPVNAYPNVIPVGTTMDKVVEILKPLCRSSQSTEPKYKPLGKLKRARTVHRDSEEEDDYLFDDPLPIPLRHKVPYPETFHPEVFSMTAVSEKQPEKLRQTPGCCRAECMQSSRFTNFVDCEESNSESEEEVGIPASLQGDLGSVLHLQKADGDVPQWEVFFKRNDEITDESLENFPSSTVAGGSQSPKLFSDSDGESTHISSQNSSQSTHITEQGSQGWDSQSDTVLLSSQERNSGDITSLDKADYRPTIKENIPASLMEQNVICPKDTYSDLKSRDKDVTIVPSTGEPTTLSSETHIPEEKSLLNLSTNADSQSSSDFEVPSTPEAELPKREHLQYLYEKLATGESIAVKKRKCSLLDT

Question: COc1ccc(C(=O)c2c(C(F)(F)F)oc3c2C(=O)c2ccccc2C3=O)cc1OC was tested. Which IC50 did it give?
Answer: Its IC50 is > 20 µM (inactive).

Question: With CN1/C(=N\O)c2cccc3cccc1c23 as the compound, how does the IC50 read?
Answer: Its IC50 is > 20 µM (inactive).

Question: With O=c1c2ccccc2nc(N/N=C/c2c(O)ccc3ccccc23)n1O as the compound, how does the IC50 read?
Answer: Its IC50 is 4.68 µM.

Question: How did the IC50 turn out when Cc1nnc(-c2ccccc2)c(=O)n1/N=C/c1c(O)ccc2ccccc12 was run?
Answer: The IC50 was > 20 µM (inactive).

Question: Which IC50 does the source give for N#CC1=C(N)Oc2n[nH]c(-c3cccs3)c2C1c1ccoc1 (stereo unspecified) here?
Answer: The IC50 was > 20 µM (inactive).

Question: How did the IC50 turn out when COc1cccc(/C=N/Nc2nc(Nc3ccccc3)nc(-n3nc(C)cc3C)n2)c1O was run?
Answer: Its IC50 is 1.5 µM.

Question: Which IC50 does the source give for O=C(CCCSc1ccccc1)Nc1nc(-c2ccccn2)cs1 here?
Answer: Its IC50 is 9.58 µM.

Question: With Oc1ccc2ccccc2c1C=NC12CN3CCN(CN(C3)C1)C2 as the compound, how does the IC50 read?
Answer: Its IC50 is 3.64 µM.

Question: How did the IC50 turn out when C/C(=N\O)c1ccccc1C(=O)O was run?
Answer: The IC50 was 3.62 µM.

Question: How did the IC50 turn out when COc1cccc(N=Nc2c(N)[nH]n3c(=O)cc(-c4ccccc4)nc23)c1 was run?
Answer: The IC50 was 16.2 µM.

Question: Cc1cc(C)n(-c2nc(Nc3ccccc3C(F)(F)F)nc(-n3nc(C)cc3C)n2)n1 was tested. Which IC50 did it give?
Answer: The IC50 was 5 µM.

Question: How did the IC50 turn out when CCN(CC)c1ccc(/C=N/Nc2nc3ccccc3[nH]2)c(O)c1 was run?
Answer: Its IC50 is 15.5 µM.

Question: With Nc1[nH]n2c(=O)c3c(nc2c1N=Nc1ccc(Cl)cc1)CCCC3 as the compound, how does the IC50 read?
Answer: The IC50 was 16.4 µM.

Question: For COc1ccc(O)c(/C=N/Nc2nc(Nc3ccccc3)nc(-n3nc(C)cc3C)n2)c1, which IC50 is on record?
Answer: Its IC50 is 2.23 µM.

Question: With COc1ccc(Nc2nc(NCc3ccco3)nc(N/N=C/c3ccccc3)n2)cc1 as the compound, how does the IC50 read?
Answer: Its IC50 is 2.65 µM.

Question: How did the IC50 turn out when CCCCCCCCC/C(=N\O)c1ccccn1 was run?
Answer: Its IC50 is 11 µM.
